2 compounds from ChEMBL document CHEMBL1156457, “Mechanisms for picrotoxinin and picrotin blocks of alpha2 homomeric glycine receptors” (J Biol Chem, 2007) can be followed below.

Active and inactive are the calls of the source. The calls are words filed in the database; no cut-off is given here.

Assay [1] deals with T1, Glycine receptor subunit alpha-2 (Rattus norvegicus) (UniProt P22771).
T1 sequence (whole entry): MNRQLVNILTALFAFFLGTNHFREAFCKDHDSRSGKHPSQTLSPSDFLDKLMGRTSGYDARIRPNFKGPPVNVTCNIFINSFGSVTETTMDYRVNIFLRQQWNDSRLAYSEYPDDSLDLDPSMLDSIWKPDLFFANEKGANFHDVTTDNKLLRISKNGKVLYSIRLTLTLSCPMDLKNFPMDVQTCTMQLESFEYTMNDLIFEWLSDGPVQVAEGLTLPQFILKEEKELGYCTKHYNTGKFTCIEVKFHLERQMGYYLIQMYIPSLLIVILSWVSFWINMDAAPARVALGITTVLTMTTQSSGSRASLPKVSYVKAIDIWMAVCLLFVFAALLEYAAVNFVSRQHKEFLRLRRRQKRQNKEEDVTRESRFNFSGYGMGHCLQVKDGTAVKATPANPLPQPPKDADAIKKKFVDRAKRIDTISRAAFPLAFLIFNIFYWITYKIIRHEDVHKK
The experiment in a line: (§1) Inhibition of rat alpha2 homomeric glycine receptor expressed in CHO cells assessed as inhibition of 300 uM glycine-elicited current at 3 uM at +50 mV voltage by outside patch clamp technique. The format is cell-based. (In patch-clamp work, channel activity is measured electrically.)

Assay [2] addresses T1, Glycine receptor subunit alpha-2 (Rattus norvegicus). The experiment in a line: Inhibition of rat alpha2 homomeric glycine receptor expressed in CHO cells assessed as inhibition of 300 uM glycine-elicited current at 3 uM by outside patch clamp technique. The class given is cell-based.
Assay [3] has as its target T2, Glycine receptor subunit alpha-2 (Rattus norvegicus, UniProt P22771).
T2 sequence (P22771 whole entry): T1 sequence (whole entry)
The experiment in a line: Inhibition of rat alpha2 homomeric glycine receptor expressed in CHO cells assessed as inhibition of 300 uM glycine-elicited current by outside patch clamp technique. The class given is cell-based.

The target of assay [4] is T1, Glycine receptor subunit alpha-2 (Rattus norvegicus). The experiment in a line: Inhibition of rat alpha2 homomeric glycine receptor expressed in CHO cells assessed as inhibition of 300 uM glycine-elicited current at 10 uM by outside patch clamp technique. The format is cell-based.
Assay [5] shares this target. The assay is described as §1. The class given is cell-based. The source holds these as a separate data set.
For assay [6] the target is unchanged. The experiment in a line: Inhibition of rat alpha2 homomeric glycine receptor expressed in CHO cells assessed as inhibition of deactivation time constant by outside patch clamp technique. The class given is cell-based.
The target is the same in assay [7]. The experiment in a line: Effect on rat alpha2 homomeric glycine receptor expressed in CHO cells assessed as shortened single receptor burst opening in response to glycine-pulse at 10 uM by outside patch clamp technique. The format is cell-based.
Assay [8] shares this target. In words: Effect on rat alpha2 homomeric glycine receptor expressed in CHO cells assessed as decrease in channel mean open time at 10 uM by outside patch clamp technique relative to control. The format is cell-based.
The target is the same in assay [9]. In words: Effect on rat alpha2 homomeric glycine receptor expressed in CHO cells assessed as decrease in channel mean open time by outside patch clamp technique relative to control. The format is cell-based.
For assay [10] the target is unchanged. The experiment in a line: Effect on rat alpha2 homomeric glycine receptor expressed in CHO cells assessed as decrease in activation phase of glycine response at 10 uM by outside patch clamp technique. The class given is cell-based.
Assay [11] has the same target. In words: Effect on rat alpha2 homomeric glycine receptor expressed in CHO cells assessed as change in rising time constant of glycine response at 10 uM by outside patch clamp technique. The format is cell-based.
Assay [12] shares this target. The experiment in a line: Effect on rat alpha2 homomeric glycine receptor expressed in CHO cells assessed as change in relative area of rising time constant of glycine response at 10 uM by outside patch clamp technique. The class given is cell-based.
Assay [13] shares this target. The experiment in a line: Effect on rat alpha2 homomeric glycine receptor expressed in CHO cells assessed as decrease in glycine-evoked recovery time constant at 10 uM by outside patch clamp technique. The class given is cell-based.
Assay [14] shares this target. In words: Effect on rat alpha2 homomeric glycine receptor expressed in CHO cells assessed as glycine-evoked response at 10 uM administered before glycine challenge by outside patch clamp technique. The class given is cell-based.
The target is the same in assay [15]. The experiment in a line: Effect on rat alpha2 homomeric glycine receptor expressed in CHO cells assessed as shortened deactivation phase of glycine-evoked response at 10 uM administered before glycine challenge by outside patch clamp technique. The class given is cell-based.
Assay [16] shares this target. In words: Inhibition of rat alpha2 homomeric glycine receptor expressed in CHO cells assessed as inhibition of 30 mM glycine-elicited current at 10 uM by outside patch clamp technique.
For assay [17] the target is unchanged. In words: Inhibition of rat alpha2 homomeric glycine receptor expressed in CHO cells assessed as inhibition of 300 uM glycine-elicited current at 100 uM at +50 mV voltage by outside patch clamp technique. The class given is cell-based.
For assay [18] the target is unchanged. In words: Inhibition of rat alpha2 homomeric glycine receptor expressed in CHO cells assessed as inhibition of 300 uM glycine-elicited current at 100 uM at -50 mV voltage by outside patch clamp technique. The format is cell-based.
Assay [19] has the same target. The experiment in a line: Effect on rat alpha2 homomeric glycine receptor expressed in CHO cells assessed as shortened single receptor burst opening in response to glycine-pulse at 30 uM by outside patch clamp technique. The format is cell-based.
Assay [20] shares this target. In words: Effect on rat alpha2 homomeric glycine receptor expressed in CHO cells assessed as flickering of channel in response to glycine-pulse at 30 uM by outside patch clamp technique. The class given is cell-based.
Assay [21] shares this target. In words: Effect on rat alpha2 homomeric glycine receptor expressed in CHO cells assessed as decrease in channel mean open time at 30 uM by outside patch clamp technique relative to control. The class given is cell-based.
For assay [22] the target is unchanged. In words: Effect on rat alpha2 homomeric glycine receptor expressed in CHO cells assessed as decrease in activation phase of glycine response at 30 uM by outside patch clamp technique. The class given is cell-based.
Assay [23] shares this target. In words: Effect on rat alpha2 homomeric glycine receptor expressed in CHO cells assessed as change in rising time constant of glycine response at 300 uM by outside patch clamp technique. The format is cell-based.
Assay [24] has the same target. In words: Effect on rat alpha2 homomeric glycine receptor expressed in CHO cells assessed as change in relative area of rising time constant of glycine response at 300 uM by outside patch clamp technique. The format is cell-based.
Assay [25] has the same target. The experiment in a line: Effect on rat alpha2 homomeric glycine receptor expressed in CHO cells assessed as glycine-evoked response at 100 uM administered before glycine challenge by outside patch clamp technique. The format is cell-based.
The target is the same in assay [26]. In words: Effect on rat alpha2 homomeric glycine receptor expressed in CHO cells assessed as shortened deactivation phase of glycine-evoked response at 100 uM administered before glycine challenge by outside patch clamp technique. The class given is cell-based.
The target is the same in assay [27]. In words: Inhibition of rat alpha2 homomeric glycine receptor expressed in CHO cells assessed as inhibition of 30 mM glycine-elicited current at 300 uM by outside patch clamp technique.
Assay [28] has the same target. The experiment in a line: Inhibition of rat alpha2 homomeric glycine receptor expressed in CHO cells assessed as inhibition of 300 uM glycine-elicited current at 300 uM by outside patch clamp technique.

As for `C=C(C)[C@@H]1[C@H]2OC(=O)[C@@H]1[C@]1(O)C[C@H]3O[C@]34C(=O)O[C@H]2[C@]14C` [PICROTOXININ], the outcome in assay [1], in assay [5], in assay [7], in assay [10], in [14] and in assay [15] was Active. In addition, the values for the inhibition in assay [2], in [4] and in [16] were 50%, 78.9% and 47.4%, respectively. Besides, the IC50 (in general, the point on the concentration scale where inhibition reaches its midpoint) in assay [3] stood at 2.4 µM. The Activity entry in [6] was “Dose-dependent effect”; in [8], 9.3 ms; in assay [9] it was “Dose-dependent effect”; in [11], 81%; in [12] it was 19%; in [13], 17.6 ms.

Regarding `CC(C)(O)[C@@H]1[C@H]2OC(=O)[C@@H]1[C@]1(O)C[C@H]3O[C@]34C(=O)O[C@H]2[C@]14C` [PICROTIN], the results for the inhibition in assay [2], in assay [27] and in assay [28] were 3.4%, 36.3% and 63.7%, respectively. Moreover, in [3], the half-inhibitory concentration (IC50) stood at 117 µM. In addition, the outcome in assay [17], in [18], in assay [19], in assay [20], in assay [22] and in [25] was Active. Further, the result in assay [26] was Active. Besides, the Activity result is “Dose-dependent effect” in assay [6]; 2.9 ms in assay [21]; “Dose-dependent effect” in assay [9]; 91.1% in assay [23]; 8.9% in [24].
